Source: patent US20240390468A1, “SURVIVIN AND MAGE-A9 DUAL-TARGETED IMMUNOTHERAPY” (IMMUNOVACCINE TECHNOLOGIES INC., priority 2022, published 2024)

Assays:
[1] = molecular target: MHC class 1 allele A*02:01 (Homo sapiens, UniProt P04439, D140Y/D185E/D98H/E176V/E277Q/G131W/G231S/I119V/I121R/I166T/I218V/L300P/L318F/N151K/N90K/P208A/P217A/Q86G/Q94H/R138H/R169H/T345S); assay: REVEAL binding of HLA-A2 binding peptides; details: Higher REVEAL score
spleen cells = assay: Spleen cell studies (omission of peptide 223); format: cell-based
[2] = tested on: peptide-loaded RMA-S HHD cells; assay: Chromium 51 release assay (CTL assay); format: cell-based, mice; details: effector:target 75:1, 50:1, 25:1; mice immunized with recombinant MAGE-A9 and poly(I:C)

binding to MHC class 1 allele A*02:01 (in words) [1]: high binding
Sequence: ALSVMGVYV [MAGE-A9 223, MAGE-A9 peptide antigen]
impact of omission on immunogenic potential of a final formulation (spleen cells): does not significantly impact | CTL response (51Cr-release) [2]: elicited a response
